From PMC10636063, “Progesterone activation of β1-containing BK channels involves two binding sites” (Nature Communications, 2023)
Several values for one entry are separate records, joined by “and”; a condition that tells them apart may be missing. Identical values can stand only once.

What was measured:
[1] = test system: BK β4 subunit (KCNMB4 product); test: Thermal unfolding (MST) of purified wt β4; assay type: binding; design: delta (Δ) of onset to inflection point: unit not given here
From the text: BK channel-forming slo1 cDNA (cbv1 isoform; AY330293) was cloned from rat cerebral artery SM cells, and inserted into pcDNA3.1 vector as described. BK β1 cDNA (KCNMB1 product; NP_011452; FJ154955) were isolated from rat cerebral artery SM cells and cloned as described. β4 cDNA (KCNMB4; NP_055320; AY028605) were generously provided by Dr. Ligia Toro. CHO cells were transiently transfected with cbv1 ± β1-, or β4-carrying pcDNA3.1 using X-tremeGENE HP (Sigma-Aldrich). Mutations to β1/4 cDNAs were conducted by Genscript, with sequences being confirmed to be >99% identical to KCNMB1 product; NP_011452 or β4 KCNMB4; NP_055320; respectively. β1/4 and mutant constructs were flag-tagged (DYKDDDDK-tag) by Genscript services for subsequent immunoprecipitation and use in microscale thermophoresis studies.
Wt β1, wt β4 and mutant constructs were purified by immunoprecipitation using Dynabeads Protein G Kit (10007D by Invitrogen) and following the manufacturer’s instructions. […] The unfolding profile of a protein is a plot of its fluorescence signal against temperature. […] During the heating process, fluorescence is recorded at 330 and 350 nm. The resulting fluorescence ratio change is then analyzed for onset and inflection points. The temperature of onset and inflection is determined using built-in analysis function in Nanotemper PR.therm-control software. […]

[2] = test system: de-endothelialized, pressurized MCA segments (C57BL/6 male); test: EtOH-induced constriction of pressurized MCA in vitro; design: species or system mouse; settings: 10 µM PROG, 10-75 mM EtOH
From the text: Eight-12 week-old C57BL/6J and KCNMB1^−/− on C57BL/6 background mice of both sexes were deeply anesthetized with isoflurane via inhalation in a tightly sealed jar. Resistance size MCAs (~100 μm in external diameter) were dissected out of the mouse brains after animal euthanasia with sharp scissors. For de-endothelialized records, the endothelium was removed by passing an air bubble into the vessel lumen for 90 s[30]. This method has been consistently used by our group and validated using endothelium-dependent versus endothelium-independent vasodilators[16],[26]. Arteries were cannulated as previously described by our group[26],[40]. MCAs were cut into 5 to 10 mm-long segments under a microscope (Nikon SMZ645). The segment was cannulated at each end, and the artery exterior was continuously perfused with physiologic sodium saline (PSS) of the following composition (mM): 119 NaCl, 4.7 KCl, 1.2 KH2PO4, 1.6 CaCl2, 1.2 MgSO4, 0.023 EDTA, 11 glucose, 24 NaHCO3, pH=7.4. PSS was continuously bubbled with an O2/CO2/N2 (21/5/74%) gas mixture and maintained at 35–37 °C. The artery external wall diameter was measured using the automatic edge-detection function of lonWizard software (lonOptix) via Sanyo VCB-3512T camera (Sanyo Electric Co.). Arteries were first incubated at an intravascular pressure of 10 mm Hg for 10 min. Then intravascular pressure was increased to 60 mmHg and held steady throughout the experiment to induce myogenic tone development and maintenance[19],[30],[51]. Each artery segment was exposed to PROG, PROG-oxime (in presence and absence of 1 µM paxilline) only once to avoid development of desensitization during repeated applications of PROG-containing solution. To determine arterial viability, arterial contractility was probed with a high KCl solution at the end of each experiment. The high KCl solution was composed of the following composition (mM): 63.7 NaCl, 60 KCl, 1.2 KH2PO4, 1.2 MgSO4, 0.023 EDTA, 11 glucose, 24 NaHCO3, 1.6 CaCl2, pH=7.4. Like PSS, the high-KCl solution was continuously bubbled with O2/CO2/N2 (21/5/74%) gas mixture and maintained at 35–37 °C.

CC(=O)[C@H]1CC[C@H]2[C@@H]3CCC4=CC(=O)CC[C@]4(C)[C@H]3CC[C@]12C [PROG, Progesterone]
delta (Δ) of onset to inflection point ([1]; 10 μM PROG, individual records (Fig 1C)): 24.8 and 1.81 and 4.188 and 7.2 and 3.495 and 5.4 | effect on thermal unfolding / binding ([1]; 4–10 μM): exerted a similar effect on the thermal unfolding of β4 | effect on EtOH-induced vasoconstriction [2]: blunted EtOH-induced vasoconstriction at all alcohol concentrations
